Reference: US9694015B2, “Methods for the treatment of locally advanced breast cancer” (Celgene Corporation, priority 2012, dated 2017)
Where “and” joins values, the source holds several entries; their conditions need not be identical. Equal entries are not always repeated.

What was measured:
[1] = test system: RANTES; experiment: LPS-stimulated hPBMC cytokine/chemokine production: RANTES enhancement; format: cell-based, human
[2] = test system: HIF1-α; experiment: Hypoxia-induced HIF1-α expression in solid tumor cell lines; format: cell-based; conditions: solid tumor cell lines (e.g., breast, ovarian, colorectal, HCC)
[3] = target: T1, Aiolos (Homo sapiens (Human), UniProt Q9UKT9); experiment: Aiolos expression with and without proteasome inhibitor; format: cell-based
Excerpt: It appeared that the inhibitory effect correlates with compound's anti-proleferative activity in myeloma cells.

[4] = target: T1, Aiolos; experiment: Overexpressed flag-Aiolos-myc fusion protein in AU565 cells (western blot); format: cell-based
Experimental: In some experiments, cell lines were transfected with an Aiolos overexpression vector using Lipofectamine reagent in a batch method. Cells were seeded in a 12 well plate at 1×10^5 cells in a 3 mL volume per well. Where specified, cells were pretreated with MG132 at 10 uM for 1 hour, or DMSO was added as a control.
(§1) Cells were harvested and lysed in Pierce #89900 Ripa buffer containing 2× protease inhibitor cocktail from Pierce #78442. The lysate was applied to a QiaShredder to remove DNA. Total protein yield was measured using BioRad DC protein determination kit (Cat#500-0112). Lysates were stored at −80° C. until use. Samples were applied to BioRad Criterion PreCast gels, 10% (Bio-Rad#345-0010) and transferred to Bio-Rad Nitrocellulose/Filter Paper Sandwiches (#162-0233) for western blot analysis.

[5] = GLP 28-day toxicity study in monkey; format: in vivo
[6] = test system: IL-10; experiment: LPS-stimulated hPBMC cytokine/chemokine production: IL-10 enhancement; format: cell-based, human
Excerpt: (§2) Data provided are IC50 (μM) values for the indicated cytokines

[7] = GLP 28-day toxicity study in rat; format: in vivo
[8] = target: T1, Aiolos; experiment: Aiolos expression by western blot at 6 hours; format: cell-based; conditions: western blot at 6 hours after the treatment
[9] = target: T1, Aiolos; experiment: Aiolos protein in myeloma cells; format: cell-based
[10] = test system: NFKB; experiment: NFKB DNA binding activity in DLBCL cells; format: cell-based
[11] = test system: U87 (GBM), H929 (MM), WSU-DLCL2 and DOHH2 (NHL) xenografts; experiment: Xenografts, single agent; format: in vivo
[12] = test system: tumor cells; experiment: Direct in vitro activity against tumor cells; format: cell-based
[13] = target: Ikaros (Homo sapiens (Human), UniProt Q13422); experiment: Ikaros expression by western blot at 6 hours; format: cell-based; conditions: western blot at 6 hours after the treatment
[14] = target: T1, Aiolos; experiment: Endogenous Aiolos in breast cancer cells (western blot); format: cell-based
Experimental: Cell lines (AU565, ZR 75-1, BT-474, EFM-192A, HCC1954, HCC70, MB436 and BT549) were maintained using standard cell culture techniques. For endogenous Aiolos expression, cells were seeded in a 6 well plate at 0.5×10^6 cells per well in a 3 mL volume of media. Cells were allowed to adhere to the plate overnight.
as §1

[15] = test system: MCP-1; experiment: LPS-stimulated hPBMC cytokine/chemokine production: MCP-1 enhancement; format: cell-based, human
Excerpt: as §2

With `Cc1nc2cccc(N)c2c(=O)n1C1CCC(=O)NC1=O` (stereo not shown) [Compound A, 3-(5-amino-2-methyl-4-oxo-4H-quinazolin-3-yl)-piperidine-2,6-dione] the “RANTES (% of control)” value [1] was 131 % of control, the “HIF1α induction in response to hypoxia” value [2] was “inhibits” and the “expression of Aiolos” value ([3]; absence of a proteasome inhibitor, 60, 120, 240, 500 and 100 nM) was “inhibit the expression of Aiolos”. For the same compound, the “expression of Aiolos” value ([3]; proteasome inhibitor present) was “little inhibition”, the “time at which reduction of overexpressed Aiolos begins to show” value ([4]; AU565 cells overexpressing flag-Aiolos-myc) was “about 5 hours” and the “inhibition of Aiolos with proteasome inhibitor MG-132” value ([4]; addition of MG-132) was “rescued”. For the same compound, the “Monkey HNSTD” value ([5]; 28-day toxicity study, monkey) was 6 mg/m^2, the “Monkey HNSTD (highest non-severely toxic dose), Animal Dose” value ([5]; 28-day toxicity study, monkey) was 0.5 mg base/kg/day and 0.5 mg mg base/kg/day and the “HED (mg/person) from monkey HNSTD” value ([5]; 60-kg human body weight) was 10 mg mg base/person. For the same compound, the “HED (mg/kg) from monkey HNSTD” value ([5]; human equivalent dose) was 0.16 mg mg base/kg, the “Starting Dose (mg) from monkey HNSTD” value ([5]; safety factor 6) was 1.7 mg mg base and the “IL-10 (% of control)” value [6] was 480 % of control. For the same compound, the “Rat STD10 (severely toxic dose in 10% of the animals), Animal Dose” value ([7]; 28-day toxicity study, rat) was 300 mg mg base/kg/day, the “HED (mg/person) from rat STD10” value ([7]; 60-kg human body weight) was 2900 mg mg base/person and the “HED (mg/kg) from rat STD10” value ([7]; human equivalent dose) was 48 mg mg base/kg. For the same compound, the “Starting Dose (mg) from rat STD10” value ([7]; safety factor 10) was 290 mg mg base, the “expression of Aiolos” value [8] was “inhibited” and the “inhibitory effect on Aiolos expression” value [9] was “showed inhibitory effect”. The “NFKB DNA binding activity” value [10] was “partially inhibits”, the “single agent activity in xenografts” value [11] was “single agent activity was observed” and the “direct in vitro activity against tumor cells” value [12] was “limited direct in vitro activity”. For the same compound, the “expression of Ikaros” value [13] was “inhibited”, the “endogenous Aiolos” value ([14]; Her^2+ cells (AU565, BT-474, EFM-192A and HCC1954)) was “inhibited” and the “levels of Aiolos” value ([14]; ZR 75-1 and AU565 cell lines, 24 hours after the treatment) was “reduced the levels of Aiolos”. The “MCP-1 (% of control)” value [15] was 236 % of control.
